Target: T1, rat EP4 receptor (Rattus norvegicus, UniProt P43114)
T1 construct: expressed in transfected cells
Test: Cyclic AMP elevation in 293S cell lines stably overexpressing recombinant rat EP4 receptors
Type: cell-based
Details: 293S cells expressing rat EP4, 1 mM IBMX, 12 minutes at 37° C.; read-out: EC50 in the cAMP (rat EP4) elevation assay
Source text: Determination of Cyclic AMP Elevation in 293S Cell Lines Stably Overexpressing Recombinant Rat EP4 Receptors Assay
cDNA representing the complete open reading frame of the rat EP4 receptor is generated by reverse transcriptase polymerase chain reaction using oligonucleotide primers based on published sequences. The full length coding sequence for the rat EP4 receptor is made in accordance with the procedure in Sando et al., Biochem. Biophys. Res. Comm. 1994, 200, 1329-1333, and RNA from rat kidney (EP4) as templates. 293S cells are transfected with the cloned rat EP4 receptor in pcDNA3 by lipid mediated transfection. Stable cell lines expressing the rat EP4 receptor are established following selection of transfected cells with Geneticin® (Invitrogen Corporation, Carlsbad, Calif.).
Clonal cell lines expressing the maximal number of receptors are chosen following a whole cell ^3H-PGE2 binding assay using unlabeled PGE2 as a competitor. […] Constitutive expression of the receptor in parental 293-S cells is negligible. A stable cell line containing the rat EP4 receptor is grown in Dulbecco's Mosified Eagle Medium/F12 (DMEM/F12) containing 10% fetal bovine serum and G418 (500 μg/ml) to 80% confluency.
cAMP responses in the 293-S/EP4 lines are determined by detaching cells from culture flasks in 1 ml of calcium (Ca++) and magnesium (Mg++) deficient phosphate buffered saline (PBS) via vigorous pounding and then rinsing the cells with calcium (Ca++) and magnesium (Mg++) deficient phosphate buffered saline (PBS). The cells are resuspended in MEM (Minimum Essential Medium), 1% BSA (bovine serum albumin), 50 mM HEPES (N-[2-Hydroxyethyl]piperazine-N′-[2-ethanesulfonic acid]) at 37° C. The cell suspension is counted on a hemacytometer and diluted by adding MEM (Minimum Essential Medium) to a final concentration of 1×10^6 cells/ml, and adding 3-isobutyl-1-methylxanthine (IBMX) to a final concentration of 1 mM. 200 microliters of cell suspension is immediately aliquoted into individual tubes and incubated for 10 minutes, uncovered, at 37° C., 5% CO2, 95% relative humidity. The compound of Formula I or II to be tested in either dimethylsulfoxide (DMSO) or ethanol is then added to cells at 1:100 dilutions such that the final DMSO or ethanol concentration is 1%. Typically, the cells are treated with 6-8 different concentrations (in 1 log increments, such as those described below) of the compound of Formula I or II. Typical concentrations of the compound of Formula I or II in this assay are between 10^−5M to 10^−10M. For example, a six point compound dose response assay tests the compound of Formula I or II at concentrations of 10^−5M, 10^−6M, 10^−7M, 10^−8M, 10^−9M and 10^—10M. Immediately after adding the test compound, the tubes are covered, mixed by inverting two times, and incubated at 37° C. for 12 minutes. Samples are then lysed by incubation at 100° C. for 10 minutes and immediately cooled on ice for 5 minutes to approximately 4° C. Cellular debris is pelleted by centrifugation at 3500×g for 5 minutes at approximately 4° C., and cleared lysates are transferred to fresh tubes. cAMP concentrations are determined using a commercially available ^125I-cAMP radioimmunoassay (RIA) kit (NEK-033, Perkin-Elmer Life Sciences, Inc., Boston, Mass.). The cleared lysates are diluted 1:100 in cAMP RIA assay buffer (included in kit) and centrifuged again. 50 microliters of the resulting supernatant is transferred to a 12×75 mm glass tube and data is collected by scintillation counting using a Wallac Cobra II Gamma Counter (Perkin-Elmer Wallac, Inc., Gaithersburg, Md.). EC50 calculations are performed on a calculator using linear regression analysis on the linear portion of the dose response curves or using Data Fitter.

T1 sequence (P43114 whole entry): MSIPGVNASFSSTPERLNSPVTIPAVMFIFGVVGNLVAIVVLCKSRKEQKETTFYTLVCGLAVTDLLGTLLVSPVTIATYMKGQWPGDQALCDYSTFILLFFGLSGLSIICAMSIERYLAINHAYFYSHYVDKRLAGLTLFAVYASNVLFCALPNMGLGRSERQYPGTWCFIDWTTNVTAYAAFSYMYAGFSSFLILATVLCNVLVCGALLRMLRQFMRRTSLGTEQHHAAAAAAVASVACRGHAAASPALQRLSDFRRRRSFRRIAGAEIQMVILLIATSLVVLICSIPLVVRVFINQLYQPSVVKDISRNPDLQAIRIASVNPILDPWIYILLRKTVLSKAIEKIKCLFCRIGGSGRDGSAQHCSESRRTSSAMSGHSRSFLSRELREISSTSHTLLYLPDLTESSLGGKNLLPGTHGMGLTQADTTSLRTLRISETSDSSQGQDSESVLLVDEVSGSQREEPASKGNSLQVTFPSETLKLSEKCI

| EC50 [nM] | SMILES |
| --- | --- |
| 8.8 | O=C(O)CCCCCCN1C(=O)CC[C@@H]1CC[C@@H](O)Cc1cccc(Cl)c1 [Example 1, 7-{2S-[4-(3-Chloro-phenyl)-3R-hydroxy-butyl]-5-oxo-pyrrolidin-1-yl}-heptanoic acid] |
| 13.2 | O=C(O)CCCCCCN1C(=O)CC[C@@H]1CC[C@@H](O)Cc1cccc(C(F)(F)F)c1 [Example 2, 7-{2S-[3R-hydroxy-4-(3-trifluoromethyl-phenyl)-butyl]-5-oxo-pyrrolidin-1-yl}-heptanoic acid] |
| 33.1 | O=C1CC[C@H](CCC(O)Cc2cccc(Cl)c2)N1CCCCCCc1nn[nH]n1 (stereo partly drawn) [Example 3, 5S-[4-(3-Chloro-phenyl)-3-hydroxy-butyl]-1-[6-(2H-tetrazol-5-yl)-hexyl]-pyrrolidin-2-one] |
| 70.2 | O=C1CC[C@H](CC[C@@H](O)Cc2cccc(C(F)(F)F)c2)N1CCCCCCc1nn[nH]n1 [Example 4, 5S-[3R-Hydroxy-4-(3-trifluoromethyl-phenyl)-butyl]-1-[6-(2H-tetrazol-5-yl)-hexyl]-pyrrolidin-2-one] |
| 175 | O=C1CCC(CCC(O)Cc2cccc(-c3ccccc3)c2)N1CCCCCCc1nn[nH]n1 (stereo not drawn) [Example 6, 5-(4-Biphenyl-3-yl-3-hydroxy-butyl)-1-[6-(2H-tetrazol-5-yl)-hexyl]-pyrrolidin-2-one] |
| 32.5 | O=C(O)CCCCCCN1C(=O)CCC1CCC(O)Cc1ccccc1 (stereo not drawn) [Example 9, 7-(2-(3-hydroxy-4-phenyl-butyl)-5-oxo-pyrrolidin-1-yl)-heptanoic acid] |

— patent publication US20030176479A1, “Use of selective EP4 receptor agonists for the treatment of liver failure, loss of patency of the ductus arteriosus, glaucoma or ocular hypertension” (priority 2002, published 2003)
